Experimental data published in ChEMBL document CHEMBL1201862, “PubChem BioAssay data set” (2004).
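Compound exposure: 48 hours, 5 concentrations, 96-well plates. GI50 is the concentration that inhibits growth by half.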 Active and inactive are the calls of the source. No stated cut-off is given here; in the data, active = GI50 up to about 1.1 µM and inactive = higher.

Tests used:
Assay in all cases: NCI anticancer screen, dose series, 48 h
DU-145 = test system: DU-145
EKVX = test system: EKVX
SNB-19 = test system: SNB-19
BT-549 = test system: BT-549
NCI/ADR-RES = test system: NCI/ADR-RES
Malme-3M = test system: Malme-3M
T47D = test system: T47D
Hs-578T = test system: Hs-578T
SK-MEL-5 = test system: SK-MEL-5
HCT-15 = test system: HCT-15
UACC-257 = test system: UACC-257
CCRF-CEM = test system: CCRF-CEM
UO-31 = test system: UO-31
RXF 393 = test system: RXF 393
OVCAR-5 = test system: OVCAR-5
U-251 = test system: U-251
HOP-92 = test system: HOP-92
KM12 = test system: KM12
LOX IMVI = test system: LOX IMVI
HCC 2998 = test system: HCC 2998

| Compound | GI50 (DU-145) | GI50 (EKVX) | GI50 (SNB-19) | GI50 (BT-549) | GI50 (NCI/ADR-RES) | GI50 (Malme-3M) | GI50 (T47D) | GI50 (Hs-578T) | GI50 (SK-MEL-5) | GI50 (HCT-15) [µM] | GI50 (UACC-257) | GI50 (CCRF-CEM) | GI50 (UO-31) | GI50 (RXF 393) | GI50 (OVCAR-5) | GI50 (U-251) | GI50 (HOP-92) | GI50 (KM12) | GI50 (LOX IMVI) | GI50 (HCC 2998) |
| --- | --- | --- | --- | --- | --- | --- | --- | --- | --- | --- | --- | --- | --- | --- | --- | --- | --- | --- | --- | --- |
| Brc1ccc(-c2cn3ccncc3n2)cc1 | > 100 µM (inactive) | 63.8 µM (inactive) | > 100 µM (inactive) | > 100 µM (inactive) | > 100 µM (inactive) | > 100 µM (inactive) | > 100 µM (inactive) | > 100 µM (inactive) | > 100 µM (inactive) | > 100 | 14.9 µM (inactive) | > 100 µM (inactive) | > 100 µM (inactive) | > 100 µM (inactive) | > 100 µM (inactive) | > 100 µM (inactive) | > 100 µM (inactive) | > 100 µM (inactive) | > 100 µM (inactive) | – |
| COc1ccc(CNC(C)C(=O)O)cc1 (centres undefined) | > 100 µM (inactive) | > 100 µM (inactive) | > 100 µM (inactive) | > 100 µM (inactive) | > 100 µM (inactive) | > 100 µM (inactive) | > 100 µM (inactive) | > 100 µM (inactive) | > 100 µM (inactive) | > 100 | > 100 µM (inactive) | 19.7 µM (inactive) | > 100 µM (inactive) | > 100 µM (inactive) | > 100 µM (inactive) | > 100 µM (inactive) | > 100 µM (inactive) | > 100 µM (inactive) | > 100 µM (inactive) | – |
| CC(C)(C)OC(=O)NC(Cc1ccc(OCc2ccccc2)cn1)C(=O)O (centres undefined) | > 100 µM (inactive) | > 100 µM (inactive) | > 100 µM (inactive) | > 100 µM (inactive) | > 100 µM (inactive) | > 100 µM (inactive) | – | > 100 µM (inactive) | > 100 µM (inactive) | > 100 | > 100 µM (inactive) | > 10 µM (inactive) | > 100 µM (inactive) | > 100 µM (inactive) | > 100 µM (inactive) | > 100 µM (inactive) | > 100 µM (inactive) | > 100 µM (inactive) | > 100 µM (inactive) | > 100 µM (inactive) |
| Cc1ccc(S(=O)(=O)c2c(O)c3ccccc3n(C)c2=O)cc1 | > 100 µM (inactive) | > 100 µM (inactive) | > 100 µM (inactive) | > 100 µM (inactive) | > 100 µM (inactive) | > 100 µM (inactive) | > 100 µM (inactive) | > 100 µM (inactive) | > 100 µM (inactive) | > 100 | > 100 µM (inactive) | > 100 µM (inactive) | > 100 µM (inactive) | > 100 µM (inactive) | > 100 µM (inactive) | > 100 µM (inactive) | > 100 µM (inactive) | > 100 µM (inactive) | – | – |
| CNC(=O)c1ccccc1-[s+]1c2ccccc2c(=O)n1C (centres undefined) | > 100 µM (inactive) | > 100 µM (inactive) | > 100 µM (inactive) | > 100 µM (inactive) | > 100 µM (inactive) | > 100 µM (inactive) | > 100 µM (inactive) | > 100 µM (inactive) | > 100 µM (inactive) | > 100 | > 100 µM (inactive) | > 100 µM (inactive) | > 100 µM (inactive) | > 100 µM (inactive) | > 100 µM (inactive) | > 100 µM (inactive) | > 100 µM (inactive) | > 100 µM (inactive) | > 100 µM (inactive) | – |
| CC1=C(C#N)S(=O)(=O)c2c(oc(C)c2C)N1 | > 100 µM (inactive) | > 100 µM (inactive) | > 100 µM (inactive) | > 100 µM (inactive) | > 100 µM (inactive) | > 100 µM (inactive) | > 100 µM (inactive) | > 100 µM (inactive) | > 100 µM (inactive) | > 100 | > 100 µM (inactive) | – | > 100 µM (inactive) | – | > 100 µM (inactive) | > 100 µM (inactive) | > 100 µM (inactive) | > 100 µM (inactive) | > 100 µM (inactive) | > 100 µM (inactive) |
| CCOC(=O)c1cc(=O)c2ccnc3c2n1CCS3 | > 100 µM (inactive) | > 100 µM (inactive) | 50.2 µM (inactive) | 62.2 µM (inactive) | > 100 µM (inactive) | – | 17.6 µM (inactive) | > 100 µM (inactive) | > 100 µM (inactive) | > 100 | 51.6 µM (inactive) | 48.5 µM (inactive) | 57.5 µM (inactive) | – | > 100 µM (inactive) | 43.9 µM (inactive) | 66.4 µM (inactive) | 40.9 µM (inactive) | 57.4 µM (inactive) | – |
| C=CCC1C(=O)Nc2cccc3ncn(c23)C1=O (centres undefined) | > 100 µM (inactive) | > 100 µM (inactive) | > 100 µM (inactive) | > 100 µM (inactive) | > 100 µM (inactive) | > 100 µM (inactive) | > 100 µM (inactive) | > 100 µM (inactive) | > 100 µM (inactive) | > 100 | > 100 µM (inactive) | > 100 µM (inactive) | > 100 µM (inactive) | > 100 µM (inactive) | > 100 µM (inactive) | > 100 µM (inactive) | > 100 µM (inactive) | 48.9 µM (inactive) | – | – |
| Cc1ccc2c(=O)c(-c3nnc(N)s3)c[nH]c2n1 | > 100 µM (inactive) | > 100 µM (inactive) | > 100 µM (inactive) | > 100 µM (inactive) | > 100 µM (inactive) | > 100 µM (inactive) | > 100 µM (inactive) | > 100 µM (inactive) | > 100 µM (inactive) | > 100 | > 100 µM (inactive) | > 100 µM (inactive) | > 100 µM (inactive) | 83.4 µM (inactive) | > 100 µM (inactive) | 67.1 µM (inactive) | – | > 100 µM (inactive) | > 100 µM (inactive) | – |
| COC(=O)c1cc(/C=C2\Cc3cc4c(cc3C2=O)CCC4)cc2c1CCC2 | > 100 µM (inactive) | > 100 µM (inactive) | > 100 µM (inactive) | > 100 µM (inactive) | > 100 µM (inactive) | > 100 µM (inactive) | > 100 µM (inactive) | > 100 µM (inactive) | – | > 100 | > 100 µM (inactive) | > 100 µM (inactive) | > 100 µM (inactive) | – | > 100 µM (inactive) | > 100 µM (inactive) | – | > 100 µM (inactive) | > 100 µM (inactive) | > 100 µM (inactive) |
| CC(C)(CCC(C)(C)c1ccccc1)c1ccccc1 | 18.4 µM (inactive) | 17.7 µM (inactive) | 18.3 µM (inactive) | 20.2 µM (inactive) | 19.5 µM (inactive) | 16 µM (inactive) | 16.7 µM (inactive) | 22.1 µM (inactive) | 14.4 µM (inactive) | 20.9 | 14.3 µM (inactive) | 18.4 µM (inactive) | – | 12.9 µM (inactive) | 18.8 µM (inactive) | 16.7 µM (inactive) | 19 µM (inactive) | 15.3 µM (inactive) | 17.5 µM (inactive) | – |
| CCC(O)(Cc1ccc(OC)cc1)c1ccc(OC)cc1 (centres undefined) | > 100 µM (inactive) | > 100 µM (inactive) | > 100 µM (inactive) | > 100 µM (inactive) | > 100 µM (inactive) | > 100 µM (inactive) | – | > 100 µM (inactive) | > 100 µM (inactive) | > 100 | > 100 µM (inactive) | > 100 µM (inactive) | > 100 µM (inactive) | > 100 µM (inactive) | > 100 µM (inactive) | > 100 µM (inactive) | > 100 µM (inactive) | > 100 µM (inactive) | > 100 µM (inactive) | > 100 µM (inactive) |
| O=c1[nH]c(=O)n(C2CC(O)C(CO)O2)cc1OCCCc1ccccc1 (centres undefined) | > 100 µM (inactive) | > 100 µM (inactive) | > 100 µM (inactive) | > 100 µM (inactive) | > 100 µM (inactive) | > 100 µM (inactive) | > 100 µM (inactive) | > 100 µM (inactive) | > 100 µM (inactive) | > 100 | > 100 µM (inactive) | > 100 µM (inactive) | > 100 µM (inactive) | > 100 µM (inactive) | > 100 µM (inactive) | > 100 µM (inactive) | – | > 100 µM (inactive) | > 100 µM (inactive) | – |
| COc1ccc2c(c1OC)C(=O)O[C@@H]2[C@H]1c2cc3c(cc2CCN1C)OCO3 | > 100 µM (inactive) | > 100 µM (inactive) | > 100 µM (inactive) | > 100 µM (inactive) | > 100 µM (inactive) | – | > 100 µM (inactive) | > 100 µM (inactive) | > 100 µM (inactive) | > 100 | > 100 µM (inactive) | > 10 µM (inactive) | > 100 µM (inactive) | – | > 100 µM (inactive) | > 100 µM (inactive) | > 100 µM (inactive) | > 100 µM (inactive) | > 100 µM (inactive) | > 100 µM (inactive) |
| Nc1nc(Cl)c2ncn(Cc3ccccc3CCl)c2n1 | 14.7 µM (inactive) | 15.9 µM (inactive) | 6.05 µM (inactive) | 8.18 µM (inactive) | 4.52 µM (inactive) | 3.36 µM (inactive) | 24.2 µM (inactive) | 7.76 µM (inactive) | 8.55 µM (inactive) | 2.69 | 13.1 µM (inactive) | 17.7 µM (inactive) | 15.7 µM (inactive) | – | 19.9 µM (inactive) | 3.46 µM (inactive) | 6.52 µM (inactive) | 15.7 µM (inactive) | 3.92 µM (inactive) | 2.99 µM (inactive) |
